Structures can show the parent of a compound that is named as a salt.
Target: PAI-1 (Homo sapiens, UniProt P05121)
Test: PAI-1 inhibition in the S2251 chromogenic substrate assay (PAI functional assay)
Assay type: biochemical
Conditions: for INHIBITION OF PAI-1 (degree of inhibition): Table 1, first part, unit assumed; for inhibition at 20 µM / inhibition at 100 µM / inhibition at 50 µM: Table 1, second part, read-out: INHIBITION OF PAI-1 (degree of inhibition)
Protocol: In this assay, a compound is incubated with PAI-1 prior to addition to the tPA assay system. Inhibition of PAI-1 results in the production of plasmin from plasminogen. […]
Compounds of formula (A) were tested in a PAI chromogenic substrate assay. […] In turn, the plasmin cleaved the chromogenic substrate S2251 (Kabi-Vitrum) producing pNA (p-nitroaniline) which was detected scectrophotometrically at 405 nm.

Chain of PAI-1 (P05121 24-402): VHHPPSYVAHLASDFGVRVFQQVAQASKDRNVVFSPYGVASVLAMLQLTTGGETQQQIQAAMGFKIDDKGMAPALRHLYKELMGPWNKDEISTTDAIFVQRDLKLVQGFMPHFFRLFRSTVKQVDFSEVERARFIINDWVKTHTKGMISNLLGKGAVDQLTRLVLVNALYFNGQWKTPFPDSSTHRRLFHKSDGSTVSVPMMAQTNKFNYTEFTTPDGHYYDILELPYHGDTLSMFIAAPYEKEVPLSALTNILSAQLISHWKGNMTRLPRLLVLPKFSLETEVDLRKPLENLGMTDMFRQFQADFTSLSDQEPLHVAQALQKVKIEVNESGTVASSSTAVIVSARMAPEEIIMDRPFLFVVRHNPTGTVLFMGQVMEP

| INHIBITION OF PAI-1 (degree of inhibition) (6.25 μm) [%] | INHIBITION OF PAI-1 (degree of inhibition) (12.5 μm) [%] | INHIBITION OF PAI-1 (degree of inhibition) (25 μm) [%] | INHIBITION OF PAI-1 (degree of inhibition) (50 μm) [%] | INHIBITION OF PAI-1 (degree of inhibition) (100 μm) [%] | inhibition at 20 µM [%] | inhibition at 100 µM [%] | inhibition at 50 µM [%] | Compound |
| --- | --- | --- | --- | --- | --- | --- | --- | --- |
| 10 | 6 | 12 | 35 | 36 |  |  |  | O=c1[nH]/c(=C\c2c[nH]cn2)c(=O)[nH]/c1=C\c1ccccc1 [Compound 1926, (3Z,6Z)-3-Benzylidene-6-(4-imidazolyl)methylene-2,5-piperazinedione] |
| 14 | 22 | 20 | 39 | 33 |  |  |  | Cc1[nH]cnc1/C=c1\[nH]c(=O)/c(=C/c2ccccc2)[nH]c1=O [Compound 1927, (3Z,6Z)-3-Benzylidene-6-(4-(5-methylimidazolyl))methylene-2,5-piperazinedione] |
| 16 | 48 | 59 | 45 | 27 |  |  |  | O=c1[nH]/c(=C\c2ccc(Cn3ccnc3)cc2)c(=O)[nH]/c1=C\c1ccccc1 [Compound 1929, (3Z,6Z)-3-Benzylidene-6-(4-(1-imidazolylmethyl)benzylidene)-2,5-piperazinedione] |
| 30 | 38 | 79 | 61 | 54 |  |  |  | O=c1[nH]/c(=C\c2ccc(-n3ccnc3)cc2)c(=O)[nH]/c1=C\c1ccccc1 [Compound 1930] |
| 1 | 2 | 2 | 3 | 19 |  |  |  | COc1cc(C=C/C=c2\[nH]c(=O)/c(=C/c3ccccc3)[nH]c2=O)ccc1OCCN(C)C [Compound 1950, (3Z,6Z)-3-Benzylidene-6-(4-(2-dimethylaminoethoxy)-3-methoxycinnamylidene)-2,5-piperazinedione] |
| 1 | 2 | 2 | 1 | 5 |  |  |  | COc1cc(/C=c2\[nH]c(=O)/c(=C/c3ccccc3)[nH]c2=O)ccc1OCCN(C)C [Compound 1959, (3Z,6Z)-3,Benzylidene-6-(4-(2-dimethylaminoethoxy)-3-methoxybenzylidene)-2,5-piperazinedione hydrochloride] |
| 0 | 0 | 0 | 0 | 7 |  |  |  | CN(C)CCCOc1ccc(/C=c2\[nH]c(=O)/c(=C/c3ccc(Cn4ccnc4)cc3)[nH]c2=O)cc1 [Compound 1975, (3Z,6Z)-3-(4-(3-Dimethylaminopropoxy)benzylidene)-6-(4-(1-imidazolylmethyl)benzylidene)-2,5-piperazinedione] |
| 0 | 0 | 0 | 0 | 3 |  |  |  | CN(C)CCCOc1ccc(/C=c2\[nH]c(=O)/c(=C/c3ccc(-n4ccnc4)cc3)[nH]c2=O)cc1 [Compound 1976] |
| 1 | 6 | 28 | 49 | 48 |  |  |  | CN(C)CCN(C)Cc1ccc(/C=c2\[nH]c(=O)/c(=C/c3ccccc3)[nH]c2=O)cc1 [Compound 1982, (3Z,6Z)-3-Benzylidene-6-(4-(N-methyl-N-(2-dimethylaminoethyl)aminomethylbenzylidene-2,5-piperazinedione hydrochloride] |
| 0 | 0 | 0 | 14 | 34 |  |  |  | CN1CCC(N(C)Cc2ccc(/C=c3\[nH]c(=O)/c(=C/c4ccccc4)[nH]c3=O)cc2)CC1 [Compound 1983] |
|  |  |  |  |  | 1 |  |  | CN(C)CCCOc1ccc(/C=c2\[nH]c(=O)/c(=C/c3ccc(CN(C)C)cc3)[nH]c2=O)cc1 [Compound 5023] |
|  |  |  |  |  | 10 | 34 |  | CN(C)CCCOc1ccc(/C=c2\[nH]c(=O)/c(=C/c3ccc(Cn4ccnc4)cc3)[nH]c2=O)cc1 [Compound 5026, (3Z,6Z)-3-(4-(3-Dimethylaminopropoxy)benzylidene)-6-(4-(1-imidazolyl)methylbenzylidene)-2,5-piperazinedione] |
|  |  |  |  |  | 8 | 12 | 8 | CN(C)CCCOc1ccc(/C=c2\[nH]c(=O)/c(=C/c3ccncc3)[nH]c2=O)cc1 [Compound 5027] |
|  |  |  |  |  | 4 | 11 | 4 | CN(C)CCCOc1ccc(/C=c2\[nH]c(=O)/c(=C/c3cccnc3)[nH]c2=O)cc1 [Compound 5028, (3Z,6Z)-6-(4-(3-Dimethylaminopropoxy)benzylidene)-3-(3-pyridylmethylene)-2,5-piperazinedione] |
|  |  |  |  |  | 6 | 20 | 7 | CN(C)CCCOc1ccc(/C=c2\[nH]c(=O)/c(=C/c3ccc(-n4ccnc4)cc3)[nH]c2=O)cc1 [Compound 5030, (3Z,6Z)-3-(4-(3-Dimethylaminopropoxy)benzylidene)-6-(4-(1-imidazolyl)benzylidene)-2,5-piperazinedione] |
|  |  |  |  |  | 63 | 65 | 62 | CN(C)CC(O)COc1ccc(/C=c2\[nH]c(=O)/c(=C/c3ccccc3)[nH]c2=O)cc1 (centres unmarked) [Compound 5032, (3Z,6Z)-6-Benzylidene-3-(4-(3-dimethylamino-2-hydroxypropoxy)benzylidene)-2,5-piperazinedione] |
|  |  |  |  |  | 0 | 0 | 1 | O=c1[nH]/c(=C\c2ccc(OCC(O)CN3CCOCC3)cc2)c(=O)[nH]/c1=C\c1ccccc1 (centres unmarked) [Compound 5040, (3Z,6Z)-6-Benzylidene-3-(4-(2-hydroxy-3-morpholinopropoxy)benzylidene)-2,5-piperazinedione] |
|  |  |  |  |  | 0 | 1 | 0 | CN(C)CCCOc1ccc(/C=c2\[nH]c(=O)/c(=C/c3ccco3)[nH]c2=O)cc1 [Compound 5041, (3Z,6Z)-6-(4-(3-Dimethylaminopropoxy)benzylidene)-3-furfurylidene-2,5-piperazinedione] |
|  |  |  |  |  | 42 | 77 | 64 | CN(C)CCCOc1ccc(/C=c2\[nH]c(=O)/c(=C/c3ccsc3)[nH]c2=O)cc1 [Compound 5042, (3Z,6Z)-6-(4-(3-Dimethylaminopropoxy)benzylidene)-3-(3-Thenylidene)-2,5-piperazinedione] |
|  |  |  |  |  | 1 | 21 | 15 | O=c1[nH]/c(=C\c2ccc(OCC(O)CN3CCN(CCO)CC3)cc2)c(=O)[nH]/c1=C\c1ccccc1 (centres unmarked) [Compound 5043, (3Z,6Z)-6-Benzylidene-3-(4-(2-hydroxy-3-(4-(2-hydroxyethyl)-1-piperazinyl)propoxy)benzylidene)-2,5-piperazinedione] |
|  |  |  |  |  | 11 | 55 | 19 | CC(=O)Nc1ccc(/C=c2\[nH]c(=O)/c(=C/c3ccc(OCCCN(C)C)cc3)[nH]c2=O)cc1 [Compound 5048] |
|  |  |  |  |  | 86 | 77 | 76 | CN(C)CCCOc1ccc(/C=c2\[nH]c(=O)/c(=C/c3ccoc3)[nH]c2=O)cc1 [Compound 5052, (3Z,6Z)-6-(4-(3-Dimethylaminopropoxy)benzylidene)-3-(3-Furylmethylene)-2,5-piperazinedione] |
|  |  |  |  |  | 56 | 68 | 64 | O=c1[nH]/c(=C\c2ccc(OCCN3CCCC3)cc2)c(=O)[nH]/c1=C\c1ccccc1 [Compound 5053, (3Z,6Z)-6-Benzylidene-3-(4-(2-(1-pyrrolidinyl)ethoxy)benzylidene)2,5-piperazinedione] |
|  |  |  |  |  | 48 | 5 | 57 | O=c1[nH]/c(=C\c2ccc(OCCN3CCOCC3)cc2)c(=O)[nH]/c1=C\c1ccccc1 [Compound 5054, (3Z,6Z)-6-Benzylidene-3-(4-(2-morpholinoethoxy)benzylidene)-2,5-piperazinedione] |
|  |  |  |  |  | 70 | 69 | 69 | O=c1[nH]/c(=C\c2ccc(OCCn3ccnc3)cc2)c(=O)[nH]/c1=C\c1ccccc1 [Compound 5055, (3Z,6Z)-6-Benzylidene-3-(4-(2-(1-imidazolyl)ethoxy)benzylidene)2,5-piperazinedione] |
|  |  |  |  |  | 37 | 44 | 29 | O=c1[nH]/c(=C\c2ccc(OCC(O)Cn3ccnc3)cc2)c(=O)[nH]/c1=C\c1ccccc1 (centres unmarked) [Compound 5057, (3Z,6Z)-6-Benzylidene-3-(4-(2-hydroxy-3-(1-imidazolyl)propoxy)benzylidene)-2,5-piperazinedione] |
|  |  |  |  |  | 60 | 43 | 48 | CN(C)CC(=O)NCc1ccc(/C=c2\[nH]c(=O)/c(=C/c3ccccc3)[nH]c2=O)cc1 [Compound 5061, (3Z,6Z)-6-Benzylidene-3-(4-dimethylaminoacetamidomethylbenzylidene)-2,5-piperazinedione] |
